≈ marks a conversion by molar mass, not a printed value.
Key:
[1] = test system: Mycolicibacterium smegmatis; assay: Antitubercular activity against Mycobacterium smegmatis mc2155 ATCC 700084 cultured in GAST media incubated for 24 hrs by resazurin microtiter assay; format: functional
[2] = test system: Mycolicibacterium smegmatis; assay: Antitubercular activity against Mycobacterium smegmatis mc2155 ATCC 700084 cultured in GAST-Fe media incubated for 24 hrs by resazurin microtiter assay; format: functional
[3] = test system: Mycobacterium tuberculosis; assay: microbe, parasite or virus in culture; details: H37Rv ATCC 27294, 192 h
[4] = test system: Mycobacterium tuberculosis; assay: microbe, parasite or virus in culture; details: H37Rv ATCC 27294, 192 h; remark: listed apart in the source

Row | SMILES | MIC90 [1] [µg/mL] | MIC90 [2] [µg/mL] | MIC90 [3] [µg/mL] | MIC90 [4] [µg/mL]
1 | CC(=O)N1N=C(c2ccccc2O)CC1c1ccccc1Br (stereo not given) | > 256 | > 256 | > 256 | > 256
2 | CC(=O)N1N=C(c2ccccc2O)CC1c1cccc(F)c1 (stereo not given) | 128 (≈ 429 µM) | 128 (≈ 429 µM) | 64 (≈ 215 µM) | 256 (≈ 858 µM)
3 | COc1cccc(C2CC(c3ccccc3O)=NN2C(N)=S)c1 (stereo not given) | > 256 | 256 (≈ 782 µM) | 32 (≈ 97.7 µM) | 64 (≈ 195 µM)
4 | NC(=S)N1N=C(c2ccccc2O)CC1c1cccc(O)c1 (stereo not given) | 128 (≈ 408 µM) | 256 (≈ 817 µM) | 16 (≈ 51.1 µM) | 128 (≈ 408 µM)
5 | Cc1ccc(C2CC(c3ccccc3O)=NN2)cc1 (stereo not given) | 16 (≈ 63.4 µM) | 64 (≈ 254 µM) | 8 (≈ 31.7 µM) | 32 (≈ 127 µM)
6 | Oc1ccccc1C1=NNC(c2ccc(F)cc2)C1 (stereo not given) | 8 (≈ 31.2 µM) | 64 (≈ 250 µM) | 16 (≈ 62.4 µM) | 128 (≈ 499 µM)
7 | COc1ccccc1C1CC(c2ccccc2O)=NN1 (stereo not given) | 64 (≈ 239 µM) | 128 (≈ 477 µM) | 32 (≈ 119 µM) | 256 (≈ 954 µM)
8 | CC(=O)N1N=C(c2ccccc2O)CC1c1cccc(O)c1 (stereo not given) | > 256 | > 256 | > 256 | > 256
9 | CC(=O)N1N=C(c2ccccc2O)CC1c1ccccc1O (stereo not given) | > 256 | > 256 | > 256 | 256 (≈ 864 µM)
10 | CC(=O)N1N=C(c2ccccc2O)CC1c1cccc(Br)c1 (stereo not given) | > 256 | 256 (≈ 713 µM) | > 256 | > 256
11 | CC(=O)N1N=C(c2ccccc2O)CC1c1ccc(Cl)cc1 (stereo not given) | > 256 | 256 (≈ 813 µM) | > 256 | > 256
12 | NNC(=O)c1ccncc1 [ISONIAZID] | 2 (≈ 14.6 µM) | 2 (≈ 14.6 µM) | 0.03 (≈ 0.219 µM) | 0.005 (≈ 0.0365 µM)
13 | COc1ccc(C2CC(c3ccccc3O)=NN2)cc1O (stereo not given) | > 256 | > 256 | 128 (≈ 450 µM) | 256 (≈ 900 µM)
14 | Oc1ccccc1C1=NNC(c2cccc(F)c2)C1 (stereo not given) | 16 (≈ 62.4 µM) | 64 (≈ 250 µM) | 64 (≈ 250 µM) | 256 (≈ 999 µM)
15 | CC(=O)N1N=C(c2ccccc2O)CC1c1ccc(C)cc1 (stereo not given) | > 256 | 256 (≈ 870 µM) | > 256 | > 256
16 | COc1ccc(C2CC(c3ccccc3O)=NN2C(C)=O)cc1 (stereo not given) | > 256 | > 256 | > 256 | > 256
17 | NC(=S)N1N=C(c2ccccc2O)CC1c1ccc(Cl)cc1 (stereo not given) | 128 (≈ 386 µM) | 256 (≈ 771 µM) | 4 (≈ 12.1 µM) | 8 (≈ 24.1 µM)
18 | Cc1ccc(C2CC(c3ccccc3O)=NN2C(N)=S)cc1 (stereo not given) | 128 (≈ 411 µM) | > 256 | 8 (≈ 25.7 µM) | 8 (≈ 25.7 µM)
19 | Oc1ccccc1C1=NNC(c2ccccc2O)C1 (stereo not given) | 64 (≈ 252 µM) | 64 (≈ 252 µM) | 64 (≈ 252 µM) | > 256
20 | CC(=O)N1N=C(c2ccccc2O)CC1c1ccccc1F (stereo not given) | 256 (≈ 858 µM) | 256 (≈ 858 µM) | > 256 | > 256
21 | CC(=O)N1N=C(c2ccccc2O)CC1c1ccccc1 (stereo not given) | > 256 | > 256 | > 256 | > 256
22 | CC(=O)N1N=C(c2ccccc2O)CC1c1cccc(Cl)c1 (stereo not given) | 128 (≈ 407 µM) | 128 (≈ 407 µM) | 256 (≈ 813 µM) | 256 (≈ 813 µM)
23 | NC(=S)N1N=C(c2ccccc2O)CC1c1ccccc1F (stereo not given) | 128 (≈ 406 µM) | 128 (≈ 406 µM) | 16 (≈ 50.7 µM) | 32 (≈ 101 µM)
24 | CC(=O)N1N=C(c2ccccc2O)CC1c1ccc(O)cc1 (stereo not given) | > 256 | > 256 | > 256 | > 256
25 | NC(=S)N1N=C(c2ccccc2O)CC1c1ccccc1O (stereo not given) | 64 (≈ 204 µM) | 256 (≈ 817 µM) | 256 (≈ 817 µM) | 256 (≈ 817 µM)

Reference: ChEMBL document CHEMBL5046254, “Mycobactin Analogues with Excellent Pharmacokinetic Profile Demonstrate Potent Antitubercular Specific Activity and Exceptional Efflux Pump Inhibition” (J Med Chem, 2022)
